Experimental data reported in PubChem BioAssay AID1918938 (Molecular Pharmacology Branch, DTP, NCI, 2023).

Tested on: 556581-035-R-J1-PDC complex spheroid viability
Assay: Anticancer human tumor 556581-035-R-J1-PDC patient-derived ovarian carcinoma cell line growth inhibition
Conditions: for IC50: curve of first compound; for viability, T/C: stronger effect = lower value; active means viability on the fitted dose curve at most 10% of control; inactive means the rest
Summary of the method: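 Multicellular complex spheroids of tumor cells with human endothelial cells (HUVEC) and mesenchymal stem cells; the LSD1 inhibitor iadademstat was combined with standard-of-care or investigational agents. Top concentration at or near clinical Cmax, half-log dilutions; final DMSO ≤0.25%.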

[1] = second compound 0.1 µM, first compound 0.00949 µM
[2] = second compound 0.1 µM, first compound 0.03 µM
[3] = second compound 0.1 µM, first compound 0.0949 µM
[4] = second compound 0.1 µM, first compound 0.3 µM
[5] = second compound 0.1 µM, first compound 0.949 µM
[6] = second compound 0.1 µM, first compound 3 µM
[7] = second compound 0.316 µM, first compound 0.00949 µM
[8] = second compound 0.316 µM, first compound 0.03 µM
[9] = second compound 0.316 µM, first compound 0.0949 µM
[10] = second compound 0.316 µM, first compound 0.3 µM
[11] = second compound 0.316 µM, first compound 0.949 µM
[12] = second compound 0.316 µM, first compound 3 µM
[13] = second compound 1 µM, first compound 0.00949 µM
[14] = second compound 1 µM, first compound 0.03 µM
[15] = second compound 1 µM, first compound 0.0949 µM
[16] = second compound 1 µM, first compound 0.3 µM
[17] = second compound 1 µM, first compound 0.949 µM
[18] = second compound 1 µM, first compound 3 µM
[19] = second compound 3.16 µM, first compound 0.00949 µM
[20] = second compound 3.16 µM, first compound 0.03 µM
[21] = second compound 3.16 µM, first compound 0.0949 µM
[22] = second compound 3.16 µM, first compound 0.3 µM
[23] = second compound 3.16 µM, first compound 0.949 µM
[24] = second compound 3.16 µM, first compound 3 µM
[25] = second compound 10 µM, first compound 0.00949 µM
[26] = second compound 10 µM, first compound 0.03 µM
[27] = second compound 10 µM, first compound 0.0949 µM
[28] = second compound 10 µM, first compound 0.3 µM
[29] = second compound 10 µM, first compound 0.949 µM
[30] = second compound 10 µM, first compound 3 µM
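Further: spheroids exposed to agents for seven days.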
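Wherever viability, T/C is given: 100% = DMSO vehicle control wells.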

Cn1ncnc1C1c2n[nH]c(=O)c3cc(F)cc(c23)NC1c1ccc(F)cc1 (stereo not given) + NC1CC1c1ccc(-c2cccc(O)c2)cc1
inactive: viability, T/C (second compound 0.1 µM, first compound 0.000316 µM) 90.1% | viability, T/C (second compound 0.1 µM, first compound 0.001 µM) 89.6% | viability, T/C (second compound 0.1 µM, first compound 0.00316 µM) 87.5% | viability, T/C (second compound 0.1 µM, first compound 0.01 µM) 88.7% | viability, T/C (second compound 0.1 µM, first compound 0.0316 µM) 96.2% | viability, T/C (second compound 0.1 µM, first compound 0.1 µM) 81.4% | viability, T/C (second compound 0.316 µM, first compound 0.000316 µM) 89.6% | viability, T/C (second compound 0.316 µM, first compound 0.001 µM) 98.1% | viability, T/C (second compound 0.316 µM, first compound 0.00316 µM) 80.3% | viability, T/C (second compound 0.316 µM, first compound 0.01 µM) 84.9% | viability, T/C (second compound 0.316 µM, first compound 0.0316 µM) 94.5% | viability, T/C (second compound 0.316 µM, first compound 0.1 µM) 74.1% | viability, T/C (second compound 1 µM, first compound 0.000316 µM) 82.8% | viability, T/C (second compound 1 µM, first compound 0.001 µM) 88.5% | viability, T/C (second compound 1 µM, first compound 0.00316 µM) 109% | viability, T/C (second compound 1 µM, first compound 0.01 µM) 81.6% | viability, T/C (second compound 1 µM, first compound 0.0316 µM) 87% | viability, T/C (second compound 1 µM, first compound 0.1 µM) 81.8% | viability, T/C (second compound 3.16 µM, first compound 0.000316 µM) 94.4% | viability, T/C (second compound 3.16 µM, first compound 0.001 µM) 90% | viability, T/C (second compound 3.16 µM, first compound 0.00316 µM) 81.5% | viability, T/C (second compound 3.16 µM, first compound 0.01 µM) 80.5% | viability, T/C (second compound 3.16 µM, first compound 0.0316 µM) 77.7% | viability, T/C (second compound 3.16 µM, first compound 0.1 µM) 91.6% | viability, T/C (second compound 10 µM, first compound 0.000316 µM) 86.8% | viability, T/C (second compound 10 µM, first compound 0.001 µM) 83.2% | viability, T/C (second compound 10 µM, first compound 0.00316 µM) 86.5% | viability, T/C (second compound 10 µM, first compound 0.01 µM) 87.2% | viability, T/C (second compound 10 µM, first compound 0.0316 µM) 75.3% | viability, T/C (second compound 10 µM, first compound 0.1 µM) 88.2%
> 100 nM: IC50 (second compound 0.1 µM) | IC50 (second compound 0.316 µM) | IC50 (second compound 1 µM) | IC50 (second compound 3.16 µM) | IC50 (second compound 10 µM)

NS(=O)(=O)OCC1CC(n2ccc3c(NC4CCc5ccccc54)ncnc32)CC1O (stereo not given) + NC1CC1c1ccc(-c2cccc(O)c2)cc1
334 nM: IC50 (second compound 1 µM)
active: viability, T/C [30] 8.52%
134 nM: IC50 (second compound 10 µM)
255 nM: IC50 (second compound 3.16 µM)
280 nM: IC50 (second compound 0.316 µM)
321 nM: IC50 (second compound 0.1 µM)
inactive: viability, T/C [1] 104% | viability, T/C [2] 81.6% | viability, T/C [3] 66.4% | viability, T/C [4] 53.8% | viability, T/C [5] 35.4% | viability, T/C [6] 15.2% | viability, T/C [7] 96.3% | viability, T/C [8] 81% | viability, T/C [9] 66.1% | viability, T/C [10] 53.6% | viability, T/C [11] 27% | viability, T/C [12] 18.5% | viability, T/C [13] 92.5% | viability, T/C [14] 81.4% | viability, T/C [15] 77.5% | viability, T/C [16] 51.7% | viability, T/C [17] 29.5% | viability, T/C [18] 20.7% | viability, T/C [19] 98.9% | viability, T/C [20] 75.7% | viability, T/C [21] 68.5% | viability, T/C [22] 45.9% | viability, T/C [23] 32.6% | viability, T/C [24] 17.4% | viability, T/C [25] 87.8% | viability, T/C [26] 74.4% | viability, T/C [27] 56.4% | viability, T/C [28] 35.2% | viability, T/C [29] 20.3%

O=C(C=Cc1cccc(S(=O)(=O)Nc2ccccc2)c1)NO + NC1CC1c1ccc(-c2cccc(O)c2)cc1
70.7 nM: IC50 (second compound 0.316 µM)
active: viability, T/C [5] 1.81% | viability, T/C [6] 0.79% | viability, T/C [10] 8.31% | viability, T/C [11] 0.59% | viability, T/C [12] 0.61% | viability, T/C [17] 0.92% | viability, T/C [18] 0.19% | viability, T/C [23] 0.75% | viability, T/C [24] 1.27% | viability, T/C [29] 0.56% | viability, T/C [30] 1.22%
63.6 nM: IC50 (second compound 10 µM)
65.8 nM: IC50 (second compound 0.1 µM)
69.2 nM: IC50 (second compound 1 µM)
inactive: viability, T/C [1] 85.4% | viability, T/C [2] 75.1% | viability, T/C [3] 36.9% | viability, T/C [4] 14.6% | viability, T/C [7] 78.8% | viability, T/C [8] 69.1% | viability, T/C [9] 43.9% | viability, T/C [13] 79.5% | viability, T/C [14] 72.9% | viability, T/C [15] 40.6% | viability, T/C [16] 13.6% | viability, T/C [19] 82.8% | viability, T/C [20] 74.1% | viability, T/C [21] 37.5% | viability, T/C [22] 16.5% | viability, T/C [25] 74% | viability, T/C [26] 65.2% | viability, T/C [27] 41.4% | viability, T/C [28] 17.4%
66.5 nM: IC50 (second compound 3.16 µM)
